Test results taken from PMC11904984, “The Gut Microbiota‐Xanthurenic Acid‐Aromatic Hydrocarbon Receptor Axis Mediates the Anticolitic Effects of Trilobatin” (Advanced Science, 2025).

Biological target: T1, aromatic hydrocarbon receptor (AhR) (Homo sapiens, UniProt P35869)
T1 construct: His-tagged recombinant human AhR (MST); recombinant human AhR (SPR)
T1 sequence (P35869 11-848): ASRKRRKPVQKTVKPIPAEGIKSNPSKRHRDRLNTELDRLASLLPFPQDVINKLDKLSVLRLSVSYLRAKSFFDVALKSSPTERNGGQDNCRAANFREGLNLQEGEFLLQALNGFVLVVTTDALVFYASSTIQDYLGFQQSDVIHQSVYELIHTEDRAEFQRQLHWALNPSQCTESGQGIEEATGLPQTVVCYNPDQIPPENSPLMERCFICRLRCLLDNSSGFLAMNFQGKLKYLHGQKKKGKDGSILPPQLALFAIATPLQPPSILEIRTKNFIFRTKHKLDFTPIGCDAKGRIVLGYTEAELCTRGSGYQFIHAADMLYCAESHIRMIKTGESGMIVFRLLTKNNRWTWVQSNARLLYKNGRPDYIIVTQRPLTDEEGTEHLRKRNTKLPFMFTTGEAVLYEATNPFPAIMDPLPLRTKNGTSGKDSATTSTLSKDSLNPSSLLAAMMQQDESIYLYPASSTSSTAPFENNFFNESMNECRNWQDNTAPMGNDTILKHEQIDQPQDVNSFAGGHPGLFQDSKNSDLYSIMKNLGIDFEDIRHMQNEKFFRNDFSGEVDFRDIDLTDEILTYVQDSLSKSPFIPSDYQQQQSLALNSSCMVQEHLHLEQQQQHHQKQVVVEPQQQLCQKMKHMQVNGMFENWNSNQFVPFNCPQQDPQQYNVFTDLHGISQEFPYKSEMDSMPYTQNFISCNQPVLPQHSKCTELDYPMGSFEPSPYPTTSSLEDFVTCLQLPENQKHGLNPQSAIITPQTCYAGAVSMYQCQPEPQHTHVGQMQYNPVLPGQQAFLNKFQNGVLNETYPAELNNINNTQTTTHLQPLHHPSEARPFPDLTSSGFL
Assay: SPR (Biacore, CM5 chip, immobilized AhR); also MST, KD […]
Type: binding

O=C(CCc1ccc(O)cc1)c1c(O)cc(O[C@@H]2O[C@H](CO)[C@@H](O)[C@H](O)[C@H]2O)cc1O [TLB, Trilobatin] was tested, and the Kd was 10.3 µM.
